Here are results for 2 molecules from ChEMBL document CHEMBL4800726, “Data for DCP probe MSC-4381” (2021).

Structures are written as SMILES.

The target of data set [1] is Adenosine receptor A3 (Homo sapiens) (UniProt P0DMS8). Put plainly: A3 (h) Eurofins-Cerep binding assay. Details: ligand concentration 0.15 nM. The conditions noted are these: filed as agonist, Compound concentration 10.0 uM.
The target of data set [2] is Sodium-dependent serotonin transporter (Homo sapiens) (UniProt P31645). Description: 5-HT transporter (h) Eurofins-Cerep binding assay. Details: ligand concentration 2 nM. The conditions noted are these: filed as antagonist, Compound concentration 10.0 uM.
Sequence of Sodium-dependent serotonin transporter (Homo sapiens) (P31645 whole entry, looked up): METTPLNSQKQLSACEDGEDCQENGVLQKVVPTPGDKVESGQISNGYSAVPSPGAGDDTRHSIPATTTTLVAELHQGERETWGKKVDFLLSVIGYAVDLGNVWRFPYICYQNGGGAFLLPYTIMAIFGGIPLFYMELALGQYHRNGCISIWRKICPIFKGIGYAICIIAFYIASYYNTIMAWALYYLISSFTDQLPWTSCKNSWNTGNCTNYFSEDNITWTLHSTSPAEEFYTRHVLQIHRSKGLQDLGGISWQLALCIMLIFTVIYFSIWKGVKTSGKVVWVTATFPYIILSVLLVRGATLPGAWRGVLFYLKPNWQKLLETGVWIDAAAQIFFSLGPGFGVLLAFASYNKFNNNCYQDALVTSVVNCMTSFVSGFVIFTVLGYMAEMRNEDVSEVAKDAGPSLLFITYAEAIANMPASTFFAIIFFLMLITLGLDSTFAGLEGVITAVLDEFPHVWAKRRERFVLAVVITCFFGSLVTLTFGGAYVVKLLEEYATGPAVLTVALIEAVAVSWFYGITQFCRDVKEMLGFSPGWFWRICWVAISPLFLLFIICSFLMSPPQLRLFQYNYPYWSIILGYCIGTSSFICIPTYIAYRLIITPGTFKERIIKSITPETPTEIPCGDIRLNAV
Data set [3] has as its target Histamine H1 receptor (Homo sapiens) (UniProt P35367). Description: H1 (h) Eurofins-Cerep binding assay. Details: ligand concentration 1 nM. The conditions noted are these: filed as antagonist, Compound concentration 10.0 uM.
Data set [4] addresses Vasopressin V1a receptor (Homo sapiens) (UniProt P37288). Description: V1a (h) Eurofins-Cerep Cellular and Nuclear Receptor Functional Assays. The conditions noted are these: Compound concentration 10.0 uM.
The target in data set [5] is L-type Ca2+ channel (diltiazem site, benzothiazepines) (Rattus norvegicus, UniProt P22002+P27732+Q02485). Description: Ca2+ channel (L, diltiazem site) (benzothiazepines) Eurofins-Cerep binding assay. The format is protein assay. Details: incubation time 120 min, incubation temperature RT, ligand concentration 15 nM. The following applies: rat cerebral cortex, probe [3H]diltiazem, compound concentration 10 uM, read-out: % Inhibition of Control Specific Binding (Mean n=2).

Data set [6] addresses Neuropeptide Y receptor type 2 (Homo sapiens) (UniProt P49146). Description: Y2 (h) Eurofins-Cerep binding assay. Details: ligand concentration 0.015 nM. The following applies: filed as agonist, Compound concentration 10.0 uM.
Data set [7] has as its target Beta-2 adrenergic receptor (Homo sapiens) (UniProt P07550). Put plainly: Beta2 (h) Eurofins-Cerep binding assay. The conditions noted are these: filed as antagonist, Compound concentration 10.0 uM.
Data set [8] has as its target Nociceptin receptor (Homo sapiens) (UniProt P41146). Description: NOP (ORL1) (h) Eurofins-Cerep binding assay. Details: ligand concentration 0.06 nM. The conditions noted are these: filed as agonist, Compound concentration 10.0 uM.
The target of data set [9] is 5-hydroxytryptamine receptor 1E (Homo sapiens, UniProt P28566). Description: GPCRScan assay: inhibition of 5-HT1E. Details: radioligand conc. used [nm] 2.1 – 5.0, parental cells stable HEK.
Sequence of 5-hydroxytryptamine receptor 1E (P28566 whole entry): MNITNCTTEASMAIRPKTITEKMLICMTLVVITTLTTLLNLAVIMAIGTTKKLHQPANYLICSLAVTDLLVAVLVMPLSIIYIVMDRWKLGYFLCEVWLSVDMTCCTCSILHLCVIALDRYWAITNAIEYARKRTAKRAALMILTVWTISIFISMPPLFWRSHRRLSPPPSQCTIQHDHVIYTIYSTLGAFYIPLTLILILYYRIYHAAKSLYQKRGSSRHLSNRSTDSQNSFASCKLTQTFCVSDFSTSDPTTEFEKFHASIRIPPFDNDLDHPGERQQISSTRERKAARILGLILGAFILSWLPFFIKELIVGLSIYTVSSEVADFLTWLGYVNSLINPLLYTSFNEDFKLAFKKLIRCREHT
Data set [10] concerns the target Mu-type opioid receptor (Homo sapiens) (UniProt P35372). Put plainly: mu (MOP) (h) Eurofins-Cerep binding assay. Details: ligand concentration 0.5 nM. The following applies: filed as agonist, Compound concentration 10.0 uM.
The target in data set [11] is Adenosine receptor A2a (Homo sapiens) (UniProt P29274). Put plainly: A2A (h) Eurofins-Cerep binding assay. Details: ligand concentration 6 nM. The following applies: filed as agonist, Compound concentration 10.0 uM.
Data set [12] concerns the target D(1A) dopamine receptor (Homo sapiens) (UniProt P21728). Put plainly: D1 (h) Eurofins-Cerep binding assay. The following applies: filed as antagonist, Compound concentration 10.0 uM. Details: ligand concentration 0.3 nM.
Data set [13] concerns the target B2 bradykinin receptor (Homo sapiens) (UniProt P30411). Put plainly: B2 (h) Eurofins-Cerep binding assay. Details: ligand concentration 0.3 nM. The following applies: filed as agonist, Compound concentration 10.0 uM.
Data set [14] concerns the target T1, Muscarinic acetylcholine receptor M5 (Homo sapiens) (UniProt P08912).
T1 sequence (whole entry): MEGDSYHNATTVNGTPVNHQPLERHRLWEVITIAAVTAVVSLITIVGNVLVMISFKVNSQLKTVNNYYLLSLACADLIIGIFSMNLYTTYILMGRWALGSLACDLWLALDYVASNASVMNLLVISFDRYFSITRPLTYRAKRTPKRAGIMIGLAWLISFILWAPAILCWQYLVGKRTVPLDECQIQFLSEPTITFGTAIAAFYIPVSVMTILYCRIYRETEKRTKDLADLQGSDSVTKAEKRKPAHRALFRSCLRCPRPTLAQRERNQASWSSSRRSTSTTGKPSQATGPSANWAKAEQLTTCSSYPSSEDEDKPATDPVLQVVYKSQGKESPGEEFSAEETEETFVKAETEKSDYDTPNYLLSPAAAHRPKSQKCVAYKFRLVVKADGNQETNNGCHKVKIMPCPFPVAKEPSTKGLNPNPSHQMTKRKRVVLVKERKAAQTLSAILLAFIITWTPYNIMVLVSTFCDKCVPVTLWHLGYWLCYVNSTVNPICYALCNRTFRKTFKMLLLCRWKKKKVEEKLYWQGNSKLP
Description: M5 (h) Eurofins-Cerep binding assay. Details: ligand concentration 0.3 nM. The following applies: filed as antagonist, Compound concentration 10.0 uM.

In data set [15] the target is L-type Ca2+ channel (dihydropyridine site) (Rattus norvegicus, UniProt P22002+P27732+Q02485). Description: Ca2+ channel (L, dihydropyridine site) Eurofins-Cerep binding assay. The format is protein assay. Details: incubation time 90 min, incubation temperature RT, ligand concentration 0.1 nM. The conditions noted are these: rat cerebral cortex, probe [3H]nitrendipine, compound concentration 10 uM, read-out: % Inhibition of Control Specific Binding (Mean n=2).

In data set [16] the target is Melanocortin receptor 4 (Homo sapiens) (UniProt P32245). Description: MC4 (h) Eurofins-Cerep binding assay. Details: ligand concentration 0.05 nM. The following applies: filed as agonist, Compound concentration 10.0 uM.
Sequence of Melanocortin receptor 4 (Homo sapiens) (P32245 whole entry): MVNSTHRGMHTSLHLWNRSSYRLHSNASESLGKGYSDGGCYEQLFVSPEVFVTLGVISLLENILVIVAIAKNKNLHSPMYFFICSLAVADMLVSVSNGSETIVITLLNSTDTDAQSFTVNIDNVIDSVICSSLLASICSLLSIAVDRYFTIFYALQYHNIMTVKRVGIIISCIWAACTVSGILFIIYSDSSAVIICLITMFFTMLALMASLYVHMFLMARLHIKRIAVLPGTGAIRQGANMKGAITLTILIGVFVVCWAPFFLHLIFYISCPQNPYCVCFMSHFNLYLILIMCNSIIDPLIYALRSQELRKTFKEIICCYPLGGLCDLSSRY
Data set [17] has as its target Cholecystokinin receptor type A (Homo sapiens) (UniProt P32238). Description: CCK1 (CCKA) (h) Eurofins-Cerep binding assay. Details: ligand concentration 0.08 nM. The following applies: filed as agonist, Compound concentration 10.0 uM.
Data set [18] has as its target 5-hydroxytryptamine receptor 6 (Homo sapiens, UniProt P50406). Put plainly: 5-HT6 (h) Eurofins-Cerep binding assay. Details: ligand concentration 2 nM. The conditions noted are these: filed as agonist, Compound concentration 10.0 uM.
The target in data set [19] is 5-hydroxytryptamine receptor 7 (Homo sapiens) (UniProt P34969). Description: 5-HT7 (h) Eurofins-Cerep binding assay. Details: ligand concentration 4 nM. The following applies: filed as agonist, Compound concentration 10.0 uM.
The target in data set [20] is L-type Ca2+ channel (verapamil site, phenylalkylamine) (Rattus norvegicus, UniProt P22002+P27732+Q02485). Description: Ca2+ channel (L, verapamil site) (phenylalkylamine) Eurofins-Cerep binding assay. Details: incubation time 120 min, incubation temperature RT, ligand concentration 3 nM. The following applies: rat cerebral cortex, probe [3H]D888, compound concentration 10 uM, read-out: % Inhibition of Control Specific Binding (Mean n=2). The format is protein assay.

Data set [21] deals with Galanin receptor type 2 (Homo sapiens) (UniProt O43603). Put plainly: GAL2 (h) Eurofins-Cerep binding assay. Details: ligand concentration 0.05 nM. The conditions noted are these: filed as agonist, Compound concentration 10.0 uM.
Sequence of Galanin receptor type 2 (Homo sapiens) (O43603 whole entry): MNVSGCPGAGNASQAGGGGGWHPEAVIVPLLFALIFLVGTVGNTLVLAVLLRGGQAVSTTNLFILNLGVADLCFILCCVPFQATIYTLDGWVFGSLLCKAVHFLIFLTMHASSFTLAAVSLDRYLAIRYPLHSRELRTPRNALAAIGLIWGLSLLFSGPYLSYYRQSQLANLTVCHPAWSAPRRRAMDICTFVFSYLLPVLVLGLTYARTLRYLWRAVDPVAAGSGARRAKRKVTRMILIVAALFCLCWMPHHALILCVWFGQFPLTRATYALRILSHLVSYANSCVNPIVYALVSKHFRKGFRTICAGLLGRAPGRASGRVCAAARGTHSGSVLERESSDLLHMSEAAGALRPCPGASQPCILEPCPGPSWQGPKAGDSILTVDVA
Data set [22] concerns the target T2, 5-hydroxytryptamine receptor 1A (Homo sapiens) (UniProt P08908).
T2 sequence (whole entry): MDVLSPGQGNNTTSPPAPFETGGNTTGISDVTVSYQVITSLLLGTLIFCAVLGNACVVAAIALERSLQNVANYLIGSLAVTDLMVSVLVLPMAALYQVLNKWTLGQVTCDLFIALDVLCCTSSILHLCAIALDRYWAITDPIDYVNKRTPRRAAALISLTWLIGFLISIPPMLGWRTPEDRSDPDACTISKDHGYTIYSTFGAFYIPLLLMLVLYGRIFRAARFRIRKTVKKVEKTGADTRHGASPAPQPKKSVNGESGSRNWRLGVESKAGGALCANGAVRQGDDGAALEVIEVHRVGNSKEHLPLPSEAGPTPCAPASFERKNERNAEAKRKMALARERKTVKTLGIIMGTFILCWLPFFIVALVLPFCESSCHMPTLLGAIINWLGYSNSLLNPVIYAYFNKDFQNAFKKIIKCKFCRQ
Put plainly: 5-HT1A (h) Eurofins-Cerep binding assay. Details: ligand concentration 0.5 nM. The conditions noted are these: filed as agonist, Compound concentration 10.0 uM.

For data set [23], the target named is GABA-A receptor; anion channel (Rattus norvegicus) (UniProt O09028+P15431+P18506+P18508+P19969+P20236+P23574+P23576+P28471+P28473+P30191+P62813+P63079+P63138+Q91ZM7+Q9ES14). The conditions noted are these: Compound concentration 10.0 uM.
Data set [24] deals with D(3) dopamine receptor (Homo sapiens) (UniProt P35462). The following applies: Compound concentration 10.0 uM.
Sequence of D(3) dopamine receptor (Homo sapiens) (P35462 whole entry): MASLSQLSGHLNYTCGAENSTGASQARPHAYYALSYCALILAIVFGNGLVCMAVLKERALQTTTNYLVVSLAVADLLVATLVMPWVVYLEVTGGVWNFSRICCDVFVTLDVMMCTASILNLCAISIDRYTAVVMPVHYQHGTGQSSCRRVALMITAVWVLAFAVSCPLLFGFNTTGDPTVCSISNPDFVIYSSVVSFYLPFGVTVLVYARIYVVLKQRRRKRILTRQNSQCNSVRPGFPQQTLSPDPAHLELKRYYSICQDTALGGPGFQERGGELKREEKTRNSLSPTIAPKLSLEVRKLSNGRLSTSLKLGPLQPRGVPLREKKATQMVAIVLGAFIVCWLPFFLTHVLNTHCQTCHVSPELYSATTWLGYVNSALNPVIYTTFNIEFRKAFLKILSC
The target in data set [25] is Delta-type opioid receptor (Homo sapiens, UniProt P41143). Description: GPCRScan assay: inhibition of DOR. Details: radioligand conc. used [nm] 1.0 – 2.0, parental cells stable HEK.
Sequence of Delta-type opioid receptor (P41143 whole entry): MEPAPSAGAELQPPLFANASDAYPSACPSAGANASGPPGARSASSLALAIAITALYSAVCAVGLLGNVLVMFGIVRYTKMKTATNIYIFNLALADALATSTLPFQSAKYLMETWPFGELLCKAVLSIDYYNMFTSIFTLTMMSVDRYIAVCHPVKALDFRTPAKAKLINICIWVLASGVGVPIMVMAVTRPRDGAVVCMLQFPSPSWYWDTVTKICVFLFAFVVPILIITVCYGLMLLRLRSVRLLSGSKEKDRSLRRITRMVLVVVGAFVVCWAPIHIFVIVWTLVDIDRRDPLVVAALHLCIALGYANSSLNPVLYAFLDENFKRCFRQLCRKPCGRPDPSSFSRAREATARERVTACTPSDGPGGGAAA
Data set [26] deals with Sodium-dependent dopamine transporter (Homo sapiens, UniProt Q01959). Description: GPCRScan assay: inhibition of DAT. Details: radioligand conc. used [nm] 3.6 – 16.0, parental cells stable HEK.
Sequence of Sodium-dependent dopamine transporter (Q01959 whole entry): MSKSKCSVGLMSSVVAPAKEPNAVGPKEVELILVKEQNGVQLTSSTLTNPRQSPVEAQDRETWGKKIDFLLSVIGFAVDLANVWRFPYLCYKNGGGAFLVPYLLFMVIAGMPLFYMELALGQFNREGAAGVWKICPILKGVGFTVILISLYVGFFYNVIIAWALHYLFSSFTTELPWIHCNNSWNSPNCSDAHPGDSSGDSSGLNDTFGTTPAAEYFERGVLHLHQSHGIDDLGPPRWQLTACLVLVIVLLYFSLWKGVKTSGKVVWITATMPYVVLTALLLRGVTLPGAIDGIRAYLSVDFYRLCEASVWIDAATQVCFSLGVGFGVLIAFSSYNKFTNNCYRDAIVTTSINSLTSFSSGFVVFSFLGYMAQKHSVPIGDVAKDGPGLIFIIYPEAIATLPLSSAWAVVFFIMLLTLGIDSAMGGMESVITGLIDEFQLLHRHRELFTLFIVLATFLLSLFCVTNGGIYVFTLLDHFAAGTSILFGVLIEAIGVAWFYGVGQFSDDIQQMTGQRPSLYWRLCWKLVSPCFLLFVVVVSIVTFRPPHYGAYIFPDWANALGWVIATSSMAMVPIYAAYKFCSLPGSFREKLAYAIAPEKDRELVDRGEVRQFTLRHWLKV
Data set [27] has as its target Mu-type opioid receptor (Homo sapiens) (UniProt P35372). The following applies: Compound concentration 10.0 uM.

Sequence of Vasopressin V1a receptor (Homo sapiens) (P37288 whole entry, looked up): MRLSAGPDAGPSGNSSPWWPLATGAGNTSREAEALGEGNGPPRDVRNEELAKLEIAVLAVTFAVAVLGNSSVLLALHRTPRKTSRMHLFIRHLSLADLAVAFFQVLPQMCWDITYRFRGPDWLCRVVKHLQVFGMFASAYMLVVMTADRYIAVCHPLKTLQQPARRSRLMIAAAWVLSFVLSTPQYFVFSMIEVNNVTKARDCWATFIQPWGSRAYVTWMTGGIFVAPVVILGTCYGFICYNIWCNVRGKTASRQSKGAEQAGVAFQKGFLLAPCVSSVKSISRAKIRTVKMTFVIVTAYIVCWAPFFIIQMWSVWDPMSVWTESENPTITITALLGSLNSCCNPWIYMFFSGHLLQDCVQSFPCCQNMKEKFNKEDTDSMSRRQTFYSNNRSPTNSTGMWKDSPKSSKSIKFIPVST
Sequence of Mu-type opioid receptor (Homo sapiens) (P35372 whole entry): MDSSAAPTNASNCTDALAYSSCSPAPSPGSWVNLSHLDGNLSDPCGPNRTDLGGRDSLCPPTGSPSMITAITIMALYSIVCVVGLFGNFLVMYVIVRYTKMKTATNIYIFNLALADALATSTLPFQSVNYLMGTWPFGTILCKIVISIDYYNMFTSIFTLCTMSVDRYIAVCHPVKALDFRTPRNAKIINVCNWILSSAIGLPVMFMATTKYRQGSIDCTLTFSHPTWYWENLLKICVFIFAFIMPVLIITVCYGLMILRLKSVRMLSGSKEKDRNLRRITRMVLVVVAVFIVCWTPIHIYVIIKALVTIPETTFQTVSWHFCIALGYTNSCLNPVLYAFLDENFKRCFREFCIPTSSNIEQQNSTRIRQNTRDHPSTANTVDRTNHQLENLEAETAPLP
Sequence of Histamine H1 receptor (Homo sapiens) (P35367 whole entry): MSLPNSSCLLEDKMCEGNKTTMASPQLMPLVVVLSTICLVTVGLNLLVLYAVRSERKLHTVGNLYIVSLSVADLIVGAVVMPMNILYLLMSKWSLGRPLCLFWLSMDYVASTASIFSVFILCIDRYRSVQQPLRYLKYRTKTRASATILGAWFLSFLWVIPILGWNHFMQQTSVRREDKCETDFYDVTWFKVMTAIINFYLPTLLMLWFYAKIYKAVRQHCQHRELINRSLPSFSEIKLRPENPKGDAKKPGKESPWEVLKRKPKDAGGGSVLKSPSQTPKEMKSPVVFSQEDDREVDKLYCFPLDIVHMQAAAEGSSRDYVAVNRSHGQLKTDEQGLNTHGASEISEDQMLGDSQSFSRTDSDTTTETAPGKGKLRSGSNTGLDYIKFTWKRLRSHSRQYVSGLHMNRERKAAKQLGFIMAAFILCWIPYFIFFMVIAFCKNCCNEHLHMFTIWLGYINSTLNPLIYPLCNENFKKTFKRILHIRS
Sequence of Beta-2 adrenergic receptor (Homo sapiens) (P07550 whole entry, looked up): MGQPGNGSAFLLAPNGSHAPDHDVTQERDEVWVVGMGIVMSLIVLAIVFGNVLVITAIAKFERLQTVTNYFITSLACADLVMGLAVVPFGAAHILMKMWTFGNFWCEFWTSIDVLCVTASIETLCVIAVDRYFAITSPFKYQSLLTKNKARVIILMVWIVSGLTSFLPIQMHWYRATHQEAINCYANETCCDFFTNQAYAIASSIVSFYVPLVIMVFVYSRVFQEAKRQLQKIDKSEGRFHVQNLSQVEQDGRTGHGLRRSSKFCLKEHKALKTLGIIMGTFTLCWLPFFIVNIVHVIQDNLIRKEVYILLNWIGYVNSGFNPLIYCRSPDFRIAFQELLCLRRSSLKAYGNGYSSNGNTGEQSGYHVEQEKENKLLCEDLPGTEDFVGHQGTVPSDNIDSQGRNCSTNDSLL

For the molecule `CCOc1ccc(S(=O)(=O)Nc2ccc(Cl)cc2C#Cc2cnc(C(=O)O)cc2OC)c2ncccc12` [MSC-4381], the % Inhibition of Control Specific Binding (Mean n=2) in data set [1] was 28.1%; in data set [2], 2.4%; in data set [3], 27.6%; in [6], 8%; in data set [7], -3.7%; in data set [8], -14.7%. In addition, the % Inhibition of Control Specific Binding (Mean n=2) was -8.9% in data set [10]; -5.5% in data set [11]; 28.9% in data set [12]; -1.1% in data set [13]; -3.3% in [14]; -8% in data set [16]. Further, the % Inhibition of Control Specific Binding (Mean n=2) is -18.1% in [17]; 32% in data set [18]; -6.6% in data set [19]; 11.1% in data set [21]; -58.9% in [22]. In addition, in data set [4], the % Inhibition of Control Agonist Response (Mean n=2) stood at 34.9%. The % of Control Agonist Response (Mean n=2) in data set [4] is -3.1%. Besides, the inhibition – broadly, the drop in the measured response relative to a control, in per cent – at 120 min, 10 µM was -8.8% in data set [5] and -9.8% in data set [20]. Further, in data set [9], the Ki was over 10 µM. Also, the negative-log Ki (pKi) (commonly the negative decadic logarithm of the Ki, by convention in mol/L) in [9] is reported as under 5. Also, the inhibition at 90 min, 10 µM in data set [15] was -11%.

Consider `COc1cc(C(=O)O)ncc1C#Cc1ccccc1NS(=O)(=O)c1cccc2c(N(C)C)ccnc12` [MSC-0516], for which the inhibition in data set [23] is 19.4%; in data set [24], -9.21%; in [27], 35.4%. For the same molecule, the Ki in data set [25] (read-out: Ki) was 598 nM; in data set [25] (read-out: pKi (converted)), 589 nM; in [26] (read-out: Ki), 9.59 µM; in data set [26] (read-out: pKi (converted)) it was 9.55 µM.
